Laboratory results published in patent EP2724723A1, “Tegaserod for use in the treatment of nerve injuries” (Universitätsklinikum Hamburg-Eppendorf, priority 2012, dated 2014).

Key:
[1] = test system: 2 mm femoral nerve defect; assay: Femoral nerve regeneration: locomotor recovery (FBA, PLR, recovery index); type: in vivo, C57BL/6J mice; details: for average FBA (foot base angle): end of the 15-week study, control group 93 degrees
Description: Briefly, mice were anesthetized and the femoral nerve of the left rear leg exposed. The nerve was bis-sected 3 mm proximal to the branching of the saphenous and motor branches, and the nerve ends were sutured 0.5 mm into a 3 mm polyethylene conduits with 0.58 mm inner diameter (Becton Dickinson), leaving an overall gap length of 2 mm.
The FBA measures the angle between the hind paw and a beam as the mouse is pushing and bearing weight with the foot of the injured limb.
FBA is governed largely by the quadriceps muscle, the major muscular innervation target of the femoral nerve. Mice were trained to walk on a beam for 2 weeks prior to surgery and single frame video motion analysis (Simi Reality Motion Systems, Simi Sportsplayer) was used to quantify the angle between the beam and the foot when the toes from the left leg are fully extended.
As a complement to assessment of the FBA that measures a weight-bearing reflexive movement, the protraction limb ratio (PLR) is indicative of voluntary movement of the hind limb. […] Mice are suspended by the tail above a pencil and allowed to grasp the pencil. The PLR is measured by dividing the relative length that the uninjured hind leg extends to the pencil by the length that the injured hind limb extends.
To account for any variability between animals, an index is calculated that takes into account the initial FBA and PLR of animals prior to surgery. The recovery index is calculated by the equation: RI= (Xday y-Xday 1wk)/(Xday 0-Xday 7) x 100, where Xday0 is the measurement before injury, Xday 1wk is the measurement one week after injury, and Xday y is the measurement at the study endpoint. An RI value 100 indicates complete recovery of function.

[2] = test system: cerebellar granule neurons (cGNs); assay: In vitro neurite outgrowth of cerebellar granule neurons; type: cell-based, C57BL/6J mice; details: compared to control; Figure 2C, D
Experimental: (§1) Primary cultures of cerebellar neurons or Schwann cells were prepared from cerebellum or dorsal root ganglia of 7-day-old C57BL/6J mice as described in Mehanna et al. (2009), Brain, 132 (Pt 6): 1449-62 and Loers et al. (2005), J. Neurochem., 92(6): 1463-76. Motoneurons were prepared from E14 C57BL/6J mice as described in Simova et al. (2006), Ann. Neurol., 60(4): 430-437. In brief, 48-well plates were coated with 0.01% poly-L-lysine (PLL) or poly-L-ornithine (PLO) overnight at 4°C, washed twice with water and air-dried. Directly before use, plates were washed twice with PBS, and Schwann cells, cerebellar neurons (PLL) or motoneurons (PLO) were seeded at a density of 1.25 x 10^4 (Schwann cells and motoneurons) or 2.5 x 10^4 cells (cerebellar neurons) per well in 250 µl of corresponding serum-free culture medium. Soluble organic compounds were added to the culture 1 h after seeding in increasing concentrations. After maintenance for 24 h at 37°C, cells were fixed with 2.5% glutaraldehyde and stained with 1% methylene blue/toluidine blue in 1% borax. Morphological quantification of neurite or process lengths was performed as described in Mehanna et al. (2009), see above. Schwann cell processes and neurites of cerebellar neurons with a length of at least one cell body diameter were counted and total neurite or process length per cell was determined by counting 50 cells in each of two wells per experiment. At least three independent experiments were performed for each culture. Also, the activity of tegaserod with the PSA peptide mimic and the bacterial PSA analogue, colominic acid, on neurite and process extension experiments was compared.

735 anti PSA antibody = assay: Screening ELISA of the NIH Clinical Collection 1 Library for organic PSA mimetics; type: binding; details: 10 µM of library compound pre-incubated with 735 antibody; repeated three times
Experimental: To identify organic PSA mimetics the NIH Clinical Collection 1 Library was screened. PSA mimicking peptide (NTHTDPYIYPIDC; Mehanna et al., (2009); Brain 132 (Pt 6): 1449-1462.) coupled to catalase (3 µg/ml; 25 µl/well) was immobilized on the surface of 384-well flat bottom microtiter plates with high binding surface (Corning Life Sciences, Amsterdam, The Netherlands). Wells were washed with […], blocked with 1% bovine serum albumin for 1 h at room temperature. 735 anti PSA antibody (0.1 µg/ml; 25 µl/well) was incubated with PBS, PBS containing DMSO solvent control or PBS containing 10 µM of the organic compounds from the library for 1 h at room temperature and then added to the wells coated with […] coupled to catalase. As control for positive competition, 735 antibody was incubated with the PSA mimicking peptide (10 µM). After incubation for 1 h, wells were washed 10 times with PBS containing 0.05% Tween-20 (PBST), HRP-coupled secondary antibody (1:5,000 in PBS) was added for 1 h and after 10 more washes with PBST, binding of antibody was visualized by incubating wells with 25 µl of 0.4 mg/ml o-phenylenediamine dihydrochloride (Thermo Scientific) for 15 min. The reaction was stopped by addition of 25 µl 2.5 M H2SO4 and quantified using an ELISA reader (EnVision with Plateworks software, Perkin Elmer, Hamburg, Germany). […]

[3] = test system: regenerated femoral nerves; assay: Histology of the regenerated femoral nerve; type: in vivo, C57BL/6J mice; details: 15 weeks; for myelinated axons: vehicle control 78%; for average number of axons within regenerated nerves: vehicle control 432, unsevered 608
Experimental: Tegaserod was evaluated in a 2 mm femoral nerve defect of 12-week old C57BL/6J mice as previously described in Mehanna et al. (2009), see above. Briefly, mice were anesthetized and the femoral nerve of the left rear leg exposed. The nerve was bis-sected 3 mm proximal to the branching of the saphenous and motor branches, and the nerve ends were sutured 0.5 mm into a 3 mm polyethylene conduits with 0.58 mm inner diameter (Becton Dickinson), leaving an overall gap length of 2 mm. Conduits were filled with PuraMatrix peptide hydrogel (Becton Dickinson 354250) using 2x PBS as the gelation stimulant. Tegaserod was dissolved in the 2x PBS at concentrations of 500 nM and 5,000 nM, resulting in final concentrations of 250 nM and 2,500 nM once the PBS was combined 1:1 v/v with the PuraMatrix.
At the end of the recovery period, femoral nerves were fixed and histology was performed to assess nerve morphology within the regenerated region 1 mm into the 2 mm gap. Animals were perfused with 4% paraformadehyde and explanted nerves were post-fixed in osmium tetroxide and embedded in resin. One and 2 µm thick sections were cut into the center of the regenerated nerve and sections were stained with 1% toluidine blue and 1% borax. Sections were imaged with a Zeiss Axiocam, using 20x, 40x, and 100x objectives and AxioVision imaging software. ImageJ software was used to calculate total nerve area, number of axons, % of myelinated axons, and g-ratio as described Mehanna et al. (2009), see above.

[4] = test system: motoneurons isolated from NCAM^-/- mice; assay: In vitro neurite outgrowth of NCAM-deficient motoneurons; type: cell-based; details: tegaserod 100 nM; colominic acid 3 µM; PSA mimicking peptide 30 µM; Figure 2B
Experimental: as §1, with “After maintenance for 24 h at 37°C, cells were fixed with 2.5% glutaraldehyde and stained with 1% methylene blue/toluidine blue in 1% borax.” left out, “At least three independent experiments were performed for each culture. Also, the activity of tegaserod with the PSA peptide mimic and the bacterial PSA analogue, colominic acid, on neurite and process extension experiments was compared.” left out

## [H]/N=C(/NCCCCC)N/N=C/c1c[nH]c2ccc(OC)cc12 [tegaserod, (E)-but-2-enedioic acid; 1-[[(Z)-(5-methoxyindol-3-ylidene)methyl]amino]-2-pentylguanidine]
[1]; 250 nM in hydrogel conduit
  time after nerve injury at which sustained improvement of the FBA first became apparent: 6 weeks
  time at which FBA improvement became statistically significant from the vehicle control group: 10 weeks
  average FBA (foot base angle): 82 degrees
[1]; 250 nM, 15 weeks, vehicle control 37%
  average recovery index (RI) for the FBA: 62%
[1]; 250 nM, vehicle control 8 weeks
  time to return to pre-surgery PLR (protraction limb ratio): ≤ 6 weeks
[1]; 2,500 nM
  PLR versus other groups (in words): remained consistently higher than the other two groups
[1]; 2,500 nM in hydrogel conduit
  FBA recovery versus vehicle control (in words): did not show statistically significant difference from vehicle control
  average FBA (foot base angle): 87 degrees
[1]; 2,500 nM, 15 weeks, vehicle control 37%, considerable variation
  recovery index (RI) for the FBA: 51%
[1]; 2,500 nM, a single mouse did not recover
  RI of the PLR reached by the majority of mice: 100%
[2]
  effect on neurite outgrowth of cGNs (in words): significantly enhance neurite/process outgrowth compared to control
735 anti PSA antibody
  identification as organic compound that could potentially mimic PSA: could potentially mimic PSA
[3]; 250 nM
  myelinated axons: 88%
  average number of axons within regenerated nerves: 589 axons
[3]; 2,500 nM
  myelinated axons: 83%
  average number of axons within regenerated nerves: 434 axons
[4]
  effect on neurite extension of NCAM^-/- motoneurons (in words): no enhancement in neurite extension
